Data as given in the supplement of paper PMC10307832.

How the values were obtained:
Experiment in all cases: relative viability (nuclei count vs DMSO), 5 days (fraction); higher = more cells survive
[1] = compound: C[C@@]1(C(=O)Nc2ccc(F)nc2)CCCN1c1nc(Nc2cc(C3CC3)n[nH]2)c2cccn2n1 + COc1cccc2cc(-c3nc([C@H]4CC[C@H](C(=O)O)CC4)n4ncnc(N)c34)[nH]c12 [OSI-027] (partner 0.5 µM)
Outline: (§1)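 A single step with final 0.05% Triton X-100, 1% formaldehyde and 1 ug/ml Hoechst fixed the cells and stained nuclei 5 days after treatment. Lung cancer cell lines in 1536-well plates had been treated by pin tool the day after seeding with one drug alone or a fixed anchor-drug dose plus five library-drug doses (not always all listed) in √10 steps, and nuclei were counted on 4× images. Relative viability is the ratio of nuclei in treated wells to nuclei in vehicle wells, taken as the median of duplicate plates.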

[2] = compound: C[C@@]1(C(=O)Nc2ccc(F)nc2)CCCN1c1nc(Nc2cc(C3CC3)n[nH]2)c2cccn2n1 + Nc1nc2[nH]cc(CCc3ccc(C(=O)N[C@@H](CCC(=O)O)C(=O)O)cc3)c2c(=O)[nH]1 [Pemetrexed] (partner 0.2 µM)
Outline: as §1

[3] = compound: C[C@@]1(C(=O)Nc2ccc(F)nc2)CCCN1c1nc(Nc2cc(C3CC3)n[nH]2)c2cccn2n1 + CS(=O)(=O)CCNCc1ccc(-c2ccc3ncnc(Nc4ccc(OCc5cccc(F)c5)c(Cl)c4)c3c2)o1 [Lapatinib] (partner 2 µM)
Outline: as §1

[4] = compound: CC1(C)CNc2cc(NC(=O)c3cccnc3NCc3ccncc3)ccc21 [Motesanib] + COc1cc2c(Oc3ccc(NC(=O)C4(C(=O)Nc5ccc(F)cc5)CC4)cc3F)ccnc2cc1OCCCN1CCOCC1 [Foretinib] (partner 0.25 µM)
Outline: as §1

Cell Line	relative viability ([1]; first compound 0.04 µM)	relative viability ([1]; first compound 0.1265 µM)	relative viability ([1]; first compound 0.4 µM)	relative viability ([1]; first compound 1.265 µM)	relative viability ([2]; first compound 0.04 µM)	relative viability ([2]; first compound 0.1265 µM)	relative viability ([2]; first compound 0.4 µM)	relative viability ([2]; first compound 1.265 µM)	relative viability ([3]; first compound 0.04 µM)	relative viability ([3]; first compound 0.1265 µM)	relative viability ([3]; first compound 0.4 µM)	relative viability ([3]; first compound 1.265 µM)	relative viability ([4]; first compound 0.01 µM)	relative viability ([4]; first compound 0.03162 µM)	relative viability ([4]; first compound 0.1 µM)	relative viability ([4]; first compound 0.3162 µM)	relative viability ([4]; first compound 1 µM)
201T	0.519	0.356	0.35	0.306	0.324	0.285	0.294	0.304	1.05	0.91	0.717	0.862	1.09	1.1	0.997	1.13	1.1
A549									0.648	0.477	0.348	0.103	0.88	0.942	1.02	0.944	1.03
A-427	0.442	0.275	0.366	0.261	0.989	0.939	0.927	0.813	1.04	0.934	1.09	1.08	1.04	1.05	1.06	1.16	1.23
ABC-1	0.382	0.285	0.225	0.298					1.14	1.59	0.752	0.633	1.1	1.06	1.04	1.05	1.2
BEN	0.263	0.18	0.236	0.271	0.919	0.65	0.616	0.653	0.712	0.729	0.765	0.698	0.627	0.55	0.739	0.572	0.992
CAL-12T	0.486	0.382	0.292	0.275	0.818	0.999	0.777	0.812	0.8	0.442	0.564	0.555	1.13	1.19	1.2	1.19	1.12
COR-L23	0.656	0.53	0.518	0.461	0.203	0.198	0.173	0.183	1.12	0.957	0.994	0.423	0.993	1.06	0.992	0.964	0.955
COR-L 105	0.627	0.377	0.31	0.408	1.07	0.658	0.865	1.1	0.344	0.324	0.28	0.233	1.2	1.03	1.16	0.821	1.42
Calu-6									1.14	1.08	0.95	0.693	0.953	0.921	0.851	0.884	0.826
ChaGo-K-1	0.402	0.252	0.317	0.291	0.252	0.253	0.273	0.258					0.933	0.894	0.861	1.1	1.01
EBC-1									0.208	0.19	0.239	0.205	0.1	0.0945	0.109	0.111	0.132
EKVX	0.574	0.399	0.391	0.373	0.415	0.307	0.349	0.356	0.184	0.162	0.137	0.133	0.744	0.902	0.743	0.82	0.921
EMC-BAC-2	0.299	0.274	0.241	0.251	0.454	0.42	0.471	0.439	0.856	0.671	0.572	0.622	1.01	1.06	1.1	1.05	1.03
EPLC-272H	0.301		0.24	0.189	0.358	0.291	0.349	0.23	0.885	0.668	0.601	0.72	0.659	0.744		0.663	0.799
H3255	0.523	0.555	0.397	0.447	0.602	0.523	0.528	0.484	0.243	0.291	0.226	0.155	0.837	0.762	0.889	0.791	0.976
HARA	0.439	0.208	0.171	0.25	0.222	0.241	0.227	0.228	0.409	0.466	0.248	0.244	0.94	0.801	0.906	0.915	0.881
HCC-15	0.417	0.189	0.305	0.365	0.216	0.225	0.209	0.211	0.839	0.743	0.746	0.739	0.984	0.838	1.01	1.17	1.11
HCC-44	0.447	0.213	0.298	0.191	0.688	0.6	0.627	0.618	0.894	0.794	0.647	0.688					
HCC-78	0.377	0.308	0.298	0.323	0.898	0.898	0.913	0.922	0.826	0.476	0.186	0.186	0.665	0.637	0.507	0.514	0.678
HCC-366	0.861	0.585	0.462	0.437	0.21	0.245	0.212	0.163	1.22	0.946	1.07	0.883	0.955	0.932	0.952	0.883	1.02
HCC-827	0.393	0.782	0.707	0.724	0.264	0.284	0.244	0.277	0.224	0.214	0.17	0.175	0.963	1.09	1.02	1.08	1.03
